Test results taken from ChEMBL document CHEMBL3621069 (Bioorg Med Chem Lett, 2015).
pIC50: −log10 of the molar value. One block for each compound: values may come before it.

Assays:
[1] = target: Tyrosine-protein kinase Fgr (Homo sapiens) (UniProt P09769); experiment: Inhibition of human Fgr at 0.1 uM
[2] = Half life in dog at 5 mg/kg, iv; format: ADME, organism-based, Canis lupus familiaris; conditions: in vivo
[3] = system: Epidermal growth factor receptor (Homo sapiens), P00533 [T790M]; experiment: Inhibition of human EGFR T790M mutant at 0.1 uM; format: protein assay
[4] = target: Tyrosine-protein kinase Yes (Homo sapiens) (UniProt P07947); experiment: Inhibition of human Yes at 0.1 uM
[5] = system: Epidermal growth factor receptor (Homo sapiens), P00533 [L858R,T790M]; experiment: Inhibition of human EGFR T790M/L858R mutant at 0.01 uM; format: protein assay
[6] = system: Tyrosine-protein kinase ABL1 (Homo sapiens), P00519 [Q252H]; experiment: Inhibition of human Abl Q252H mutant at 0.01 uM
[7] = system: Receptor-type tyrosine-protein kinase FLT3 (Homo sapiens), P36888 [D835Y]; experiment: Inhibition of human Flt3 D835Y mutant at 0.01 uM
[8] = target: Tyrosine-protein kinase Lck (Homo sapiens) (UniProt P06239); experiment: Inhibition of human Lck at 0.1 uM
[9] = system: Tyrosine-protein kinase ABL1 (Homo sapiens), P00519 [Q252H]; experiment: Inhibition of human Abl Q252H mutant at 0.1 uM
Salmonella typhimurium [10] = experiment: Genotoxicity in Salmonella typhimurium TA100 at 5000 µg/plate in absence of liver S9 fraction by Ames test; format: toxicity, organism-based; conditions: salmonella enterica subsp. enterica serovar typhimurium
[11] = target: Proto-oncogene tyrosine-protein kinase receptor Ret (Homo sapiens, UniProt P07949); experiment: Inhibition of human RET pre-incubated for 30 mins at room temperature before substrate addition and measured 1 hr after substrate addition by cell free kinase assay
[12] = system: Epidermal growth factor receptor (Homo sapiens), P00533 [T790M]; experiment: Inhibition of human EGFR T790M mutant at 0.01 uM; format: protein assay
[13] = AUClast in dog at 5 mg/kg, iv; format: ADME, organism-based, Canis lupus familiaris; design: dose 5 mg/kg, time 0 - last, route intravenous; conditions: in vivo
Salmonella typhimurium [14] = experiment: Mutagenicity in Salmonella typhimurium TA1537 at 5000 µg/plate in presence of liver S9 fraction by Ames test; format: toxicity, organism-based; conditions: salmonella enterica subsp. enterica serovar typhimurium
Rattus norvegicus = experiment: Volume of distribution at steady state in Sprague-Dawley rat at 10 mg/kg, po; format: ADME, organism-based; conditions: in vivo
[15] = Apparent permeability from basolateral to apical side in human Caco2 cells; format: ADME, cell-based; conditions: Caco-2
[16] = system: Proto-oncogene tyrosine-protein kinase Src (Homo sapiens), P12931 [T341M]; experiment: Inhibition of human Src T341M mutant at 0.1 uM
[17] = target: Mitogen-activated protein kinase kinase kinase 9 (Homo sapiens) (UniProt P80192); experiment: Inhibition of human MLK1 at 0.1 uM
[18] = system: Proto-oncogene tyrosine-protein kinase receptor Ret (Homo sapiens), P07949 [V804L]; conditions: 0.01 uM
Description: Inhibition of human Ret V804L mutant at 0.01 uM

[19] = system: Epidermal growth factor receptor (Homo sapiens), P00533 [L858R,T790M]; experiment: Inhibition of human EGFR T790M/L858R mutant at 0.1 uM; format: protein assay
[20] = target: Tyrosine-protein kinase Lyn (Homo sapiens) (UniProt P07948); experiment: Inhibition of human Lyn at 0.1 uM
Escherichia coli = experiment: Mutagenicity in Escherichia coli WP2 uvrA at 5000 µg/plate in presence of liver S9 fraction by Ames test; format: toxicity, organism-based
[21] = AUClast in dog at 10 mg/kg, po; format: ADME, organism-based, Canis lupus familiaris; design: dose 10 mg/kg, route oral, time 0 - last; conditions: in vivo
[22] = system: Receptor-type tyrosine-protein kinase FLT3 (Homo sapiens), P36888 [D835Y]; experiment: Inhibition of human Flt3 D835Y mutant at 0.1 uM
[23] = system: Proto-oncogene tyrosine-protein kinase receptor Ret (Homo sapiens), P07949 [V804L]; conditions: 0.1 uM
Description: Inhibition of human Ret V804L mutant at 0.1 uM

[24] = target: T1, Tyrosine-protein kinase JAK3 (Homo sapiens, UniProt P52333); experiment: Inhibition of JAK3 (unknown origin) pre-incubated for 30 mins at room temperature before substrate addition and measured 1 hr after substrate addition by cell free kinase assay
T1 sequence (P52333 whole entry): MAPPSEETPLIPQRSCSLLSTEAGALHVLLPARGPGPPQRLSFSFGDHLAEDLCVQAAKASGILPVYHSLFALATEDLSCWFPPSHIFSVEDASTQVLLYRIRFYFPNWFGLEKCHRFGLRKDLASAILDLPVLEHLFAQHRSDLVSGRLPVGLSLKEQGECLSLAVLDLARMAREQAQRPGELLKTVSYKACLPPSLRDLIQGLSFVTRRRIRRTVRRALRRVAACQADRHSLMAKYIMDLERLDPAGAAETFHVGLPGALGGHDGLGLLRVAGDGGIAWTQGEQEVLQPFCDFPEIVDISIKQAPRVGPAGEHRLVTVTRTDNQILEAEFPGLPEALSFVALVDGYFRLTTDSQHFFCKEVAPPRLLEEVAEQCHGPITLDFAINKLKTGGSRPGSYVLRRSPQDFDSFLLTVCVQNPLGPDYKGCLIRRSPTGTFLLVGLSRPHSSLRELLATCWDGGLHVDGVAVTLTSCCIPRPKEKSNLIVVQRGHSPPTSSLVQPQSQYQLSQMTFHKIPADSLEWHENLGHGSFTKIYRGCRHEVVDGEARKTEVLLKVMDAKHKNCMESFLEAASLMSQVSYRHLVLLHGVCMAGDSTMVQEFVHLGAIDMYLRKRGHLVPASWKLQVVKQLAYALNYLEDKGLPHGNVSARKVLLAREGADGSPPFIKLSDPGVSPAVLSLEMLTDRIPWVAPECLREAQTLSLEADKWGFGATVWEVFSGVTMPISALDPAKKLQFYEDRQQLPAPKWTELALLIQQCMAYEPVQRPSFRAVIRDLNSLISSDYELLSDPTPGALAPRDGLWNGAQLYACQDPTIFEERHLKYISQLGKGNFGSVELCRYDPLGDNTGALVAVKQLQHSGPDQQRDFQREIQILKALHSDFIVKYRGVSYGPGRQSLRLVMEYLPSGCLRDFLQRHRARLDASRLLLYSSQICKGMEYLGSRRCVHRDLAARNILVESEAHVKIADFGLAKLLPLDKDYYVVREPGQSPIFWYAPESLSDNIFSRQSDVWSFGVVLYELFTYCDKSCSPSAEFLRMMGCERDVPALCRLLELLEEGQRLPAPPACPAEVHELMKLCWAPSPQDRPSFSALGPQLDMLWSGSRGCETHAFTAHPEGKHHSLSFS

[25] = Oral bioavailability in dog at 10 mg/kg; format: ADME, organism-based, Canis lupus familiaris; conditions: in vivo
[26] = Volume of distribution at steady state in dog at 5 mg/kg, iv; format: ADME, organism-based, Canis lupus familiaris; conditions: in vivo, read-out: Vdss
[27] = system: Proto-oncogene tyrosine-protein kinase receptor Ret (Homo sapiens), P07949 [V804M]; conditions: 0.01 uM
Description: Inhibition of human Ret V804M mutant at 0.01 uM

[28] = target: Tyrosine-protein kinase SYK (Homo sapiens, UniProt P43405); experiment: Inhibition of purified full-length human SYK pre-incubated for 30 mins at room temperature before Ulight-TK peptide substrate addition and measured 1 hr after substrate addition by cell free kinase assay
[29] = target: Vascular endothelial growth factor receptor 2 (Homo sapiens, UniProt P35968); experiment: Inhibition of KDR (unknown origin) pre-incubated for 30 mins at room temperature before substrate addition and measured 1 hr after substrate addition by cell free kinase assay

Chain of Epidermal growth factor receptor (Homo sapiens), P00533 [T790M] (P00533 whole entry T790M): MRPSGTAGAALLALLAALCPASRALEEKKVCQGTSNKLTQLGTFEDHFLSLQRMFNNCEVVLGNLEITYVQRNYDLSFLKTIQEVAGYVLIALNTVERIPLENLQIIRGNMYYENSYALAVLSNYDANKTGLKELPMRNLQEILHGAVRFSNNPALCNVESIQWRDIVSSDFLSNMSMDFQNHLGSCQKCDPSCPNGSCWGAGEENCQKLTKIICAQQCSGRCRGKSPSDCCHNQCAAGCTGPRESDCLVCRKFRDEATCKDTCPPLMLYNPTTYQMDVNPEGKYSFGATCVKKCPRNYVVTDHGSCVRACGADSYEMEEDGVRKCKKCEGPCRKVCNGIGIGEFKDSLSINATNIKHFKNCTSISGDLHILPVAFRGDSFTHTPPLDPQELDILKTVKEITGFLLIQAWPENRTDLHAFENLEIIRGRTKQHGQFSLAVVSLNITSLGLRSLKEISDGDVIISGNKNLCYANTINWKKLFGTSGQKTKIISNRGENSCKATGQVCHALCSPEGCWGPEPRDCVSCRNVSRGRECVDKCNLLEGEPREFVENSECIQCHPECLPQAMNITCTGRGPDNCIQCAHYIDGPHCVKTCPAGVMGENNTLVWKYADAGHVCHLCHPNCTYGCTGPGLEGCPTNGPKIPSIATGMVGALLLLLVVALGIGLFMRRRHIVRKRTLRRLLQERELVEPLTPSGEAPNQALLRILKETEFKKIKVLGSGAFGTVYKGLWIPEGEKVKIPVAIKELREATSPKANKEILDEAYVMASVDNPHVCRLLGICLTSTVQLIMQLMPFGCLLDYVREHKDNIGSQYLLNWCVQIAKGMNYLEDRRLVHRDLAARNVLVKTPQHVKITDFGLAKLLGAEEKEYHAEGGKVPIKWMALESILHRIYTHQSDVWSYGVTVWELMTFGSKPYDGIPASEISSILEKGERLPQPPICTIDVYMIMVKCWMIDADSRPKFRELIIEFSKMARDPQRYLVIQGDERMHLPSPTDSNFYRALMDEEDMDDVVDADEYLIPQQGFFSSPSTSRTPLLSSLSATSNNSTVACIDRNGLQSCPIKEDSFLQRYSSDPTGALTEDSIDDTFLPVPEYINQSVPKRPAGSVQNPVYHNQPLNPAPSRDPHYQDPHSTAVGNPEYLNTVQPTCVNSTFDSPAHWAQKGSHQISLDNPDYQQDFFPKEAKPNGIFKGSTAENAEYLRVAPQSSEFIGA
Chain of Epidermal growth factor receptor (Homo sapiens), P00533 [L858R,T790M] (P00533 whole entry T790M/L858R, looked up): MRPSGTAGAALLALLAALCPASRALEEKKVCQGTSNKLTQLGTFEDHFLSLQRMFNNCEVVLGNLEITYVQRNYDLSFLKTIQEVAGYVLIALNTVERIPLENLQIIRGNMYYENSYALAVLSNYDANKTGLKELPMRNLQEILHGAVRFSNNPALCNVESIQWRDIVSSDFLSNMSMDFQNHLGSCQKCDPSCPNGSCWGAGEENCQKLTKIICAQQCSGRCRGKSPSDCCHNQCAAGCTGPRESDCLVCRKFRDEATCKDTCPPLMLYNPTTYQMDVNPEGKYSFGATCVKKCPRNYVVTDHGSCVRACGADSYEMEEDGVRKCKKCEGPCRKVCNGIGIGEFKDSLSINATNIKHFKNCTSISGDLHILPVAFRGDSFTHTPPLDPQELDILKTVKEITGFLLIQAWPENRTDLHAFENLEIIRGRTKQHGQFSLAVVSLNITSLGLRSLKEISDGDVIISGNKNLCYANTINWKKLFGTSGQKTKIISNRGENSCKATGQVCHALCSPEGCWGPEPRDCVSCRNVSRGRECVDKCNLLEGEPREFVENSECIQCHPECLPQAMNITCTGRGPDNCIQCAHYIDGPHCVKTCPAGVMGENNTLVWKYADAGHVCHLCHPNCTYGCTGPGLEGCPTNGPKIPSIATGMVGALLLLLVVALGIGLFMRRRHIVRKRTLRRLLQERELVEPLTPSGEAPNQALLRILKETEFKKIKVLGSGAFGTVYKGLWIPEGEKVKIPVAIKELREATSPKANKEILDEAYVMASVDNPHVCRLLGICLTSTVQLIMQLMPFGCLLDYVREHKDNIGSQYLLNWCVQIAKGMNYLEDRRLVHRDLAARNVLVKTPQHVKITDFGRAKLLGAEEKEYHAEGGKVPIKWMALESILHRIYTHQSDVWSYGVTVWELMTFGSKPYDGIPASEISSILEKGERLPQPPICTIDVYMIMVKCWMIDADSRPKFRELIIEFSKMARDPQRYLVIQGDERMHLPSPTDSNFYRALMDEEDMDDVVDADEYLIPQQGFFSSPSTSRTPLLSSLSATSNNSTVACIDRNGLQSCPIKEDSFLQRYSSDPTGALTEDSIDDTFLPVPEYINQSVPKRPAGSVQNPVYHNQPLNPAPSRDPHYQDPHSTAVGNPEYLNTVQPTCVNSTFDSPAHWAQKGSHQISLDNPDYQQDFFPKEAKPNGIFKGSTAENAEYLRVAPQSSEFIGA
Chain of Proto-oncogene tyrosine-protein kinase receptor Ret (Homo sapiens), P07949 [V804L] (P07949 whole entry V804L): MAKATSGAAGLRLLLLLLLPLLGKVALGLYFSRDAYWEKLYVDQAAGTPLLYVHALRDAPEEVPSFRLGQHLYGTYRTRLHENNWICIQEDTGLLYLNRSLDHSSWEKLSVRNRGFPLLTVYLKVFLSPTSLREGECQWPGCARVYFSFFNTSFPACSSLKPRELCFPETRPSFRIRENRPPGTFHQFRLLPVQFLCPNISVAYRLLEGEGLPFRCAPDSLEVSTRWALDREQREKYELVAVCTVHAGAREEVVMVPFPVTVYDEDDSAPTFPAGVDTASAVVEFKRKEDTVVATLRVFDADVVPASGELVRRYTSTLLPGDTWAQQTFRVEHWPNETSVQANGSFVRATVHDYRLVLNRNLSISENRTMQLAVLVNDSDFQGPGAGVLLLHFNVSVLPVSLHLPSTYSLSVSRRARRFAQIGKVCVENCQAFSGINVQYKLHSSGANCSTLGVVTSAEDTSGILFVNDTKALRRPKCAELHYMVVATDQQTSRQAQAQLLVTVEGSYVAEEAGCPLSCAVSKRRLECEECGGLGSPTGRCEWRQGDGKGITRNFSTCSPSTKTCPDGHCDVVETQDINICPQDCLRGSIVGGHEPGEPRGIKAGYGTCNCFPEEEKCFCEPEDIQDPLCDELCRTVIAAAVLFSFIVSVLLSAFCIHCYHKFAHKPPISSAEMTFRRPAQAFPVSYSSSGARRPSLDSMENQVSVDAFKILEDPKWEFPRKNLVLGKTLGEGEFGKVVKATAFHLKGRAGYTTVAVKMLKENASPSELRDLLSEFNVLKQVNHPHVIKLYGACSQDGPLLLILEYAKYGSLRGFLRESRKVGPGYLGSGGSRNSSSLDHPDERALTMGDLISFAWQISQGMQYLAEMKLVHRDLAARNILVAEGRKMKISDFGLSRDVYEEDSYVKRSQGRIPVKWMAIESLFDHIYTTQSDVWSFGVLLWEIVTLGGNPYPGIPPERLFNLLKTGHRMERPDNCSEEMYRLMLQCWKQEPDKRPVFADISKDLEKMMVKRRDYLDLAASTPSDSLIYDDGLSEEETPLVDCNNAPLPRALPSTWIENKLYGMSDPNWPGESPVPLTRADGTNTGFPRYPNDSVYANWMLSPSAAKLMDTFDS
Chain of Proto-oncogene tyrosine-protein kinase Src (Homo sapiens), P12931 [T341M] (P12931 whole entry T341M, looked up): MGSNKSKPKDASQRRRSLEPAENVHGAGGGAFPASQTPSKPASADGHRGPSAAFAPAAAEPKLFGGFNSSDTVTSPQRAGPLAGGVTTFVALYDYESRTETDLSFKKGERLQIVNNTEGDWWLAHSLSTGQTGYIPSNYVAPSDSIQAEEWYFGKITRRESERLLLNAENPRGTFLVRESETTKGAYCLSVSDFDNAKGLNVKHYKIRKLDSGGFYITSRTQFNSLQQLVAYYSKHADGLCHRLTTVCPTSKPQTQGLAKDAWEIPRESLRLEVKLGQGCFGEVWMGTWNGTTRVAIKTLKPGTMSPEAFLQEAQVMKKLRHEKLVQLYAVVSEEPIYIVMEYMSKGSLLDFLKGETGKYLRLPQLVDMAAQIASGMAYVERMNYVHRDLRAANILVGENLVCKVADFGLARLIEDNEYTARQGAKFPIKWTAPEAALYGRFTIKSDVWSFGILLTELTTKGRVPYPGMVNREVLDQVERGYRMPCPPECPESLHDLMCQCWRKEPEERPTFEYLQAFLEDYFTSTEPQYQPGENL
Chain of Tyrosine-protein kinase Yes (Homo sapiens) (P07947 2-543 limits assumed): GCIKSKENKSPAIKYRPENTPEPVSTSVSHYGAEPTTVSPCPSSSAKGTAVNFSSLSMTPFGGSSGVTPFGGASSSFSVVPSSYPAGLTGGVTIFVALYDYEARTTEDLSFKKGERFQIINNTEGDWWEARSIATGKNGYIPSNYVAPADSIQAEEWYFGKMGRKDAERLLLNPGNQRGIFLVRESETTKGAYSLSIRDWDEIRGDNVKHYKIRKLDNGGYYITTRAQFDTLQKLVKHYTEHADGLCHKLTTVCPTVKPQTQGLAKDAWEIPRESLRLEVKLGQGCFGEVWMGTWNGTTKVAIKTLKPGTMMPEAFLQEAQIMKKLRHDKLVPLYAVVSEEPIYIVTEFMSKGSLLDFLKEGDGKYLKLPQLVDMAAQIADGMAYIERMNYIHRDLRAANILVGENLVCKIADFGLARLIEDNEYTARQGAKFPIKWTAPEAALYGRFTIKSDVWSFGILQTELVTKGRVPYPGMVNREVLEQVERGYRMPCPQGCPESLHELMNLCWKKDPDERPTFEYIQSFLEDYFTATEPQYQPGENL
Chain of Proto-oncogene tyrosine-protein kinase receptor Ret (Homo sapiens), P07949 [V804M] (P07949 whole entry V804M): as the sequence (P07949 whole entry V804L) above, with L804M counted along it
Chain of Proto-oncogene tyrosine-protein kinase receptor Ret (P07949 whole entry): as the sequence (P07949 whole entry V804L) above, with L804V counted along it

inhibition [1]: < 25%
half-life [2]: 4.6 h
inhibition [3]: > 70%
inhibition [4]: < 25%
inhibition [5]: < 50%
inhibition [6]: < 50%
inhibition [7]: < 50%
inhibition [8]: < 25%
inhibition [9]: > 70%
pIC50 [11]: 7.17
inhibition [12]: < 50%
AUC(0-t) [13]: 2090 ng·h/mL
Vdss (Rattus norvegicus): 3.3 L/kg
Papp B→A [15]: 3.8 ×10⁻⁶ cm/s
inhibition [16]: < 25%
inhibition [17]: 91%
inhibition [18]: < 50%
inhibition [19]: > 70%
inhibition [20]: < 25%
AUC(0-t) [21]: 1940 ng·h/mL
inhibition [22]: > 70%
inhibition [23]: > 70%
pIC50 [24]: 7.11
bioavailability [25]: 46.4%
Vd [26]: 7.1 L/kg
inhibition [27]: < 50%
Structure (SMILES): Cc1nn(-c2ccnc(Nc3ccc4c(c3)c(Cl)c(C)n4C)n2)cc1CN1CC(O)C1
Activity (Salmonella typhimurium [10]): Non-toxic
Activity (Salmonella typhimurium [14]): Non-toxic
Activity (Escherichia coli): Non-toxic

pIC50 [28]: 8.77
pIC50 [29]: 6.19
Vdss (Rattus norvegicus): 3.7 L/kg
Papp B→A [15]: 9.9 ×10⁻⁶ cm/s
pIC50 [24]: 6.38
Structure (SMILES): Cc1nn(-c2ccnc(Nc3ccc4c(c3)c(C)c(C)n4C)n2)cc1CN1CC(O)C1
Activity (Salmonella typhimurium [10]): Non-toxic
Activity (Salmonella typhimurium [14]): Non-toxic
Activity (Escherichia coli): Non-toxic
